Measurements taken from ChEMBL document CHEMBL1201862, “PubChem BioAssay data set” (2004).
Calls of active or inactive are those of the source. For most assays here, no stated cut-off is given here; in the data, actives have a measured EC50 and inactives only a lower limit.

Experiments:
BJ [1] = test: BJ-TERT-LT-ST fibroblast viability loss – cell-based, RAS-independent, luminescence, dose response (AID 1935); type: functional; details: Homo sapiens;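 further: BJ fibroblasts immortalized with TERT plus LT and ST oncogenes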
BJ [2] = test: cells; type: functional, cell-based; details: Homo sapiens
[3] = DRD fibroblast viability loss – cell-based, non-viral oncogenic, luminescence, dose response (AID 1934); type: functional; details: Homo sapiens
BJ [4] = test: BJ-TERT fibroblast viability loss – cell-based, RAS-independent, luminescence, dose response (AID 1933); type: functional; details: Homo sapiens
Fatty acid synthase [5] = target: T1, Fatty acid synthase (Homo sapiens, UniProt P49327); test: inhibition of human FAS-TE enzyme activity – biochemical, endpoint fluorescence intensity, uHTS hits, dose response (AID 624327); type: functional;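 further: fluorescence from hydrolysis of an O-methyl fluorescein acyl ester substrate by the enzyme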
Fatty acid synthase [6] = target: T1, Fatty acid synthase; test: inhibition of human FAS-TE enzyme activity – biochemical, kinetic fluorescence intensity, dose response (AID 624326); type: functional;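 further: rate of fluorescence rise from hydrolysis of a fluorogenic O-methyl fluorescein ester substrate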
[7] = target: T2, RNA-binding protein pos-1 (Caenorhabditis elegans, UniProt G5EF15); test: disruptors of C. elegans POS-1 RNA interaction – biochemical, fluorescence polarization, dose response (AID 1964);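 further: purified POS-1 fused to maltose binding protein made in E. coli; potency of compounds blocking POS-1 binding to fluorescent RNA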
T2 sequence (G5EF15 whole entry): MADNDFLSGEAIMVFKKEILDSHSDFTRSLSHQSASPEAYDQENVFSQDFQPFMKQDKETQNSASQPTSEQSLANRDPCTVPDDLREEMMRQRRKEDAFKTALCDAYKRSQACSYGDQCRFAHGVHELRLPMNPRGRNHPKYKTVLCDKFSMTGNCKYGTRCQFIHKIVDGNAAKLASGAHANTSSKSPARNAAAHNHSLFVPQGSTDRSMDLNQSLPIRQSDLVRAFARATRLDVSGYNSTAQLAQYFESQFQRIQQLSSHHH

[8] = target: T3, Zinc finger protein mex-5 (Caenorhabditis elegans, UniProt Q9XUB2); test: potency of MEX-5 RNA-binding blockers – biochemical, C. elegans, fluorescence polarization, dose response (AID 1960)
T3 sequence (Q9XUB2 whole entry): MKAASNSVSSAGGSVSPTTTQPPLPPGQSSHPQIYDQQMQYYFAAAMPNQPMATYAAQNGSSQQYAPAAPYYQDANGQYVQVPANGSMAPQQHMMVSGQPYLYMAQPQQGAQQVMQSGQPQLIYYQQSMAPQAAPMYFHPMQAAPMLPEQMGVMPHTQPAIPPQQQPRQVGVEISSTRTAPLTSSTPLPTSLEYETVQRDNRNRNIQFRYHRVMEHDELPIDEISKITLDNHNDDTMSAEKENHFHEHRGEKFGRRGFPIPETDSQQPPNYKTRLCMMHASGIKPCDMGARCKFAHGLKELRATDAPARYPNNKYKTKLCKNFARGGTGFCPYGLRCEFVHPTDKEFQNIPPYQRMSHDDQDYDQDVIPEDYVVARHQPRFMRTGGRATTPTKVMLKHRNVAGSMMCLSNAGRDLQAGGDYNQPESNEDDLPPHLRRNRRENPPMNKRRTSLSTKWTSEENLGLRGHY

[9] = target: T4, Heat shock factor protein 1 (Mus musculus, UniProt P38532); test: decrease of HSF1-responsive luciferase luminescence – cell-based, NIH3T3, dose retest, confirmation (AID 2382); type: functional;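 further: NIH3T3 fibroblasts with HSF1-driven luciferase reporter stressed by proteasome inhibitor MG132; luminescence from HSF1-driven luciferase expression after 8 hours of MG132 stress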
T4 sequence (P38532 whole entry): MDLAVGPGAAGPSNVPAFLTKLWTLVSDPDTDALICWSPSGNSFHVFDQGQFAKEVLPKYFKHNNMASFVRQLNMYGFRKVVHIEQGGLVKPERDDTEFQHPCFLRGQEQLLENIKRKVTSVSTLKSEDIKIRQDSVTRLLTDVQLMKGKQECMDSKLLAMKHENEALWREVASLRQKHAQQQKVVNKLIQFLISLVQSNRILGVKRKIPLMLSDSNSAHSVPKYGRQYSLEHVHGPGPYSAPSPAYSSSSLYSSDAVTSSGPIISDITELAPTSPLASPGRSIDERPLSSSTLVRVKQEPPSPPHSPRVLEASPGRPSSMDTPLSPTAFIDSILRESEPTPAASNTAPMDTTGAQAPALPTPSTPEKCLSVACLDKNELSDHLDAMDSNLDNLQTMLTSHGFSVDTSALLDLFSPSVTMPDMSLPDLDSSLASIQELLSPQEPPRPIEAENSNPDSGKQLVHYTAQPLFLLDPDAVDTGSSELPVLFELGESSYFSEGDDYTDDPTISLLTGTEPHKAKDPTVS

[10] = luciferase reporter signal suppression in cells – H4 neuroglioma cells, luminescence, dose response (AID 1990); type: functional, cell-based
[11] = Luminescence Cell-Based Dose Response HTS to Identify Inhibitors of 5'UTR Stem-Loop Driven Prion Protein mRNA Translation in H4 Neuroglioblastoma Cells. [Related pubchem assays: 1827 (Project Summary), 1813 (Primary HTS)]; type: functional
[12] = alpha-synuclein stem-loop luciferase translation blockers – H4 neuroglioma cells, luminescence, confirmation (AID 1988); type: functional, cell-based
[13] = HEK-293T viability loss after treatment – luminescence, T-cell screen hits, cytotoxicity control for TCR NF-kB inhibitor project, dose response (AID 489026); type: functional, cell-based;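 further: cells exposed to compound about 14 hours before the viability readout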
Paired box protein Pax-8 = Paired box protein Pax-8 (Homo sapiens, UniProt Q06710); test: PAX8 transcriptional activity inhibition in RMG-I – RMG-I cells, luciferase, cherry-pick, dose response (AID 687027); type: functional, cell-based;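 further: luciferase reporter driven by Pax8 target thyroperoxidase promoter measured by SteadyGlo luminescence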
Paired box protein Pax-8, sequence (Q06710 whole entry): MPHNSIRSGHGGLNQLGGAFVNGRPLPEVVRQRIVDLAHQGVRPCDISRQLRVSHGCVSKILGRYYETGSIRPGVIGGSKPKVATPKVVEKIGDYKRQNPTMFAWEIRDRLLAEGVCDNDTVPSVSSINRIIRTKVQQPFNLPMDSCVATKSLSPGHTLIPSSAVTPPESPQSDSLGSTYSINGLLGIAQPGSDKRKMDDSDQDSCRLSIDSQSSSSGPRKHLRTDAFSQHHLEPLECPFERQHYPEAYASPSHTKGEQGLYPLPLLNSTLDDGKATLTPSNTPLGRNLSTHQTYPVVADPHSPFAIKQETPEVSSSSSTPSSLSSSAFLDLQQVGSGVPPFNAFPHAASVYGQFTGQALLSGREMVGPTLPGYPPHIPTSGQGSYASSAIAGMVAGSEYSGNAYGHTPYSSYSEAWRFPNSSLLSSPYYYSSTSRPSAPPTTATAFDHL

T1 sequence (P49327 whole entry): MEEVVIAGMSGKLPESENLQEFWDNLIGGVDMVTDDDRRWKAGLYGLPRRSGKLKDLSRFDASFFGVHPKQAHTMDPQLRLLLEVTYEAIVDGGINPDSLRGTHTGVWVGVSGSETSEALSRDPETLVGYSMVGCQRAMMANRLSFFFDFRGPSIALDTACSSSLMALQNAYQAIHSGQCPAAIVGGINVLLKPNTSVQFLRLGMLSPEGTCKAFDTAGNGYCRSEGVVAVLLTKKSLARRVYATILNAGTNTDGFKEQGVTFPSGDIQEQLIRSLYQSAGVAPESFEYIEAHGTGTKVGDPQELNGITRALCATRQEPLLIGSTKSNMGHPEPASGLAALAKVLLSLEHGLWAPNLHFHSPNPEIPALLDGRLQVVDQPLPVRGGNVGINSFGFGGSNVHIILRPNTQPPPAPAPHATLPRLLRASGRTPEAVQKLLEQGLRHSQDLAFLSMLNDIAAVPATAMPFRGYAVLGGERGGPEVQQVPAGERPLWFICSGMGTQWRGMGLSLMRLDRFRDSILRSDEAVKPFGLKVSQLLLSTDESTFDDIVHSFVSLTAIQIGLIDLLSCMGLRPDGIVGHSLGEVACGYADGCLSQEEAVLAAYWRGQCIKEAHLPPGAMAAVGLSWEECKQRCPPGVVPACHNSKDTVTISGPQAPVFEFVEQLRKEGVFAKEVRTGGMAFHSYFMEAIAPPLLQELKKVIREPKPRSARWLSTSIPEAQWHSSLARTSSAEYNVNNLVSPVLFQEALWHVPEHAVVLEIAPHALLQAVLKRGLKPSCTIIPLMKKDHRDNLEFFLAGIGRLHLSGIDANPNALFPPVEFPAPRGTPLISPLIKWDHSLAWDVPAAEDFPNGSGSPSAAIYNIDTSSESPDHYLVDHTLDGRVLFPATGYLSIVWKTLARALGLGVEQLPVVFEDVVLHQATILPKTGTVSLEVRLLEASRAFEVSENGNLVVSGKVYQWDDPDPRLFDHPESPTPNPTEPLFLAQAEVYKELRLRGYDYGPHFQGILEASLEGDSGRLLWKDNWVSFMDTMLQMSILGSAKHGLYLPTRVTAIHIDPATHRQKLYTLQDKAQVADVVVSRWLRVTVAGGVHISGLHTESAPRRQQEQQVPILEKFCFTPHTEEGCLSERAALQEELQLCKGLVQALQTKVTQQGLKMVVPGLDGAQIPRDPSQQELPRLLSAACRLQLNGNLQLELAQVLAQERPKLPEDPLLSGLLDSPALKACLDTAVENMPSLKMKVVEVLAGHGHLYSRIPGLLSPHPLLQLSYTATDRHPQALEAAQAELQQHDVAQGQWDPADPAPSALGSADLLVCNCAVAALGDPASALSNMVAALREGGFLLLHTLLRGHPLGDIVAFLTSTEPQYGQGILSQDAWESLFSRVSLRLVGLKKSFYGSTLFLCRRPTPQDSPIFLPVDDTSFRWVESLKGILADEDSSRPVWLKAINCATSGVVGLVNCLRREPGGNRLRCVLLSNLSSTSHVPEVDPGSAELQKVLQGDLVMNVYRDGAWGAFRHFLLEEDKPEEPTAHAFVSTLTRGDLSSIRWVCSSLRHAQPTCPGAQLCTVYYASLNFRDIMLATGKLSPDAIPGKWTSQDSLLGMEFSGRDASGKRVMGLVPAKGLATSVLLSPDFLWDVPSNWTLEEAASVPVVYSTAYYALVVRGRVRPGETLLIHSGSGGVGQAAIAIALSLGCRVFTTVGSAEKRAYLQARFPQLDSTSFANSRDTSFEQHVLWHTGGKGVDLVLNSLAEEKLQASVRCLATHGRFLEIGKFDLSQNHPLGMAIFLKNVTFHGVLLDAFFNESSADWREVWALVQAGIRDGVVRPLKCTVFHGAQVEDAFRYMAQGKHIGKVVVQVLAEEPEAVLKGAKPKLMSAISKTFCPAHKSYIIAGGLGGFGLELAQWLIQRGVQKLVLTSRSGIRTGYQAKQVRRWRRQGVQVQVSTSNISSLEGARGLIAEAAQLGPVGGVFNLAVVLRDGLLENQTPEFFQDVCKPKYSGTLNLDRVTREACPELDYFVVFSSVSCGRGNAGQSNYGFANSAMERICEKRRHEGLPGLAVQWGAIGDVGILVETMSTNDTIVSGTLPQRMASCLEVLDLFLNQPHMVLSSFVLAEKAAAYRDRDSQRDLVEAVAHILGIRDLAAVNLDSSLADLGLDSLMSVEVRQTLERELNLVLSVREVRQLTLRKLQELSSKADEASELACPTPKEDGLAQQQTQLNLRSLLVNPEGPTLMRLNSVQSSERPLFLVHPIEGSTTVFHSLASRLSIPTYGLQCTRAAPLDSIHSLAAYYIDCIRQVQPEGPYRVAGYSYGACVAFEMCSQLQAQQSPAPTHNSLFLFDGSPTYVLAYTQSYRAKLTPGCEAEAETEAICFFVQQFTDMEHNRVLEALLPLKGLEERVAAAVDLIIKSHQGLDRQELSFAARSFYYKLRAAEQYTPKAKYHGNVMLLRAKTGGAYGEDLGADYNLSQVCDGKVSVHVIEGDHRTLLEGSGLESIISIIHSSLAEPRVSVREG

Row | SMILES | EC50 (BJ [1]) | EC50 (BJ [2]) | EC50 [3] | EC50 (BJ [4]) | IC50 (Fatty acid synthase [5]) | IC50 (Fatty acid synthase [6]) | other results
1 | CC(=O)c1cccc(Nc2c3c(nc4ccccc24)CCC3)c1 | 1.11 µM (active) | 30.6 µM (inconclusive) | 0.898 µM (active) | 2.21 µM (active) |  |  | 
2 | O=C(N/N=C/c1ccc(Br)o1)/C(=C/c1ccc([N+](=O)[O-])cc1)NC(=O)c1ccccc1 |  |  |  |  | 9.86 µM (active) | 10.8 µM (active) | 
3 | O=C(CC1C[C@H](C(=O)N2CCOCC2)[C@@]2(CCC3CCCC3)c3[nH]c4ccccc4c3CCN2C1=O)NCCc1ccccn1 (stereo not given in full) |  |  |  |  | 1.37 µM (active) | 1.09 µM (active) | 
4 | CC1=N/C(=C/c2ccco2)C(=O)O1 |  |  |  |  |  |  | EC50 [7]: 71.1 µM (active); EC50 [8]: 33.1 µM (active)
5 | O=C(O)c1ccc(CN2C(=O)c3cccc4c([N+](=O)[O-])ccc(c34)C2=O)cc1 | 10.6 µM (inconclusive) | 12.9 µM (active) | 10.9 µM (inconclusive) | 9.19 µM (active) |  |  | EC50 [9]: 6.53 µM (active)
6 | Cc1ccc(NC(=O)c2cc([N+](=O)[O-])ccc2N2CCCC2)cc1 |  |  |  |  | 8.09 µM (active) | 5.53 µM (active) | 
7 | CCCCC1=CC2=CC(=O)C(C)(O)C(=O)C2=CO1 (stereo not given) |  |  |  |  |  |  | EC50 [7]: 55.3 µM (active); EC50 [8]: 23.5 µM (active)
8 | CCOc1ccc(C(=O)COC(=O)c2cc([N+](=O)[O-])ccc2N2CCOCC2)cc1 |  |  |  |  | 6.76 µM (active) | 5.81 µM (active) | 
9 | Cc1ccc(C(=O)c2cc([N+](=O)[O-])ccc2N2CCCCC2)cc1 | 0.576 µM (inconclusive) | 82.5 µM (inconclusive) | 1.21 µM (active) | 0.493 µM (inconclusive) |  |  | EC50 [10]: 0.129 µM (active); EC50 [11]: 0.303 µM (active); EC50 [12]: < 0.1 µM (active); IC50 [13]: > 80 µM (inactive); AC50 (Paired box protein Pax-8): 3.39 µM (active)
